Results on 13 compounds are retold here after patent US9493430B2, “Biaryl- or heterocyclic biaryl-substituted cyclohexene derivative compounds as CETP inhibitors” (CHONG KUN DANG PHARMACEUTICAL CORP., priority 2013, dated 2016).

Structures are written as SMILES.

One data set has as its target CETP (Homo sapiens (Human), UniProt P11597). The experiment in a line: Test for inhibition of cholesteryl ester transfer (in vitro). The class given is biochemical. Conditions: human plasma as CETP source, LDL from healthy persons as acceptor, rHDL-agarose donor, 37° C. From the text: Test for Inhibition of Cholesteryl Ester Transfer (In Vitro)
1. Construction of Cholesteryl Ester Donor
To construct a cholesteryl ester donor to be used in the test, radiolabeled recombinant HDL containing […] (GE healthcare, TRK886, 3.5 μCi/mg of apoA-1) and apoA-1 was synthesized. Then, rHDL-agarose having the recombinant HDL immobilized thereon by CNBr-activated Sepharose 4B (Amersham Biosciences, Sweden) resin was used in the test.
2. Cholesteryl Ester Transfer Test
As a protein source for cholesteryl ester transfer, plasma from healthy persons was used, and as a cholesteryl ester receptor, LDL from healthy persons was used. Samples were treated with each test compound to final concentrations of 16, 80, 400, 2000 and 10000 nM and analyzed in duplicate. For the cholesteryl ester transfer test, 20 μl of plasma, 50 μl of LDL (0.25 mg/ml) and 50 μl of rHDL-agarose (0.25 mg/ml) were added, and a solution containing a test compound was added, followed by reaction at 37° C. Then, centrifugation was performed at 4° C. for 3 minutes to stop the reaction, and 150 μl of the supernatant was taken and transferred to a 96-well plate for radioactivity measurement, and the radioactivity of the plate was measured with a beta-ray detector.
(§1) 3. Statistical Processing
The ratio of [^3H]-cholesteryl oleate from HDL to LDL was calculated and used as a result value, and from the result value, IC50 value was calculated using GraphPad Prism 5.0.

Another data set has as its system golden Syrian hamsters. Briefly: Test for anti-hyperlipidemic effect in hamsters (in vivo). The following applies: Mesocricetus auratus, po, 3 mg/kg orally for 5 days, blood 4 hours after final administration, vs control; for inhibition in vivo at 3 mg/kg: read-out: Decrease in LDL-c (%); for change in vivo at 3 mg/kg: read-out: Increase in HDL-c (%).
Excerpt: Test for Anti-Hyperlipidemic Effect in Hamsters (In Vivo)
In this test, 8-week-old male golden Syrian hamsters were used. The breeding room was maintained at constant temperature and constant humidity and a 12-hr light/12-hr dark cycle. The animals were allowed access to feed and water ad libitum.
2. Anti-Hyperlipidemic Test in Hamsters
The test animals were acclimated for 1 week before use in the test. The test animals were divided according to body weight into several groups, each consisting of 5-8 animals, and were then administered orally with a dose of 3 mg/kg. A solvent control and a CETP inhibitor were dissolved in imwitor 742: tween 80 (1:1) and administered orally for 5 days, and at 4 hours after the final administration, blood was collected from the heart. The collected blood was centrifuged at 3000 rpm for 15 minutes, and the separated serum was measured for HDL-Cholesterol (Biosystem) and LDL-Cholesterol (Biosystem) using a biochemical analysis instrument (ILab 300 plus, Instrumentation Laboratory).
as §1
(§2) All test results were expressed as Mean±SEM, and to evaluate the effect of each test group, each test group was compared with the control group using one-way ANOVA test (Dunnett's test, p<0.001).

Data set [1] deals with patients. The following applies: patients administered with Anacetrapib; cited from earlier work.
Data set [2] deals with patients. The following applies: human, in vivo; cited from earlier work.
The subject of data set [3] is patients. Conditions: human, in vivo; cited from earlier work. This is another data set of the same source.
Data set [4] has as its system H295R cell line (human adrenal cortical tumor cells). The class given is cell-based. Conditions: 24 hours, 100 nM of torcetrapib, 1 μM of test compounds. As to the method:
Evaluation of the Ability of CETP Inhibitor to Secrete Blood Pressure-Hormone
Based on this, the secretion of blood pressure-increasing hormones from human adrenal cortical tumor cells was evaluated. The cell line H295R was purchased from ATCC (CRL-2128) and cultured in DMEM/F-12 medium (1% ITS, 2.5% Nu-serum). The H295R cell line was dispensed into a 24-well plate at a cell density of 1×10^5/well, and stabilized for 24 hours, after which the cells were starved for 24 hours using serum-free DMEM/F-12. Then, the cells were treated with each of 100 nM of torcetrapib and 1 μM of test compounds 554, 557, 574, 584, 586, 593, 618, 643, 650, 661, 681 and 695. At 24 hours after treatment with the drug or the compound, the supernatant was taken and stored at −20° C. The supernatant stored at −20° C. was thawed, and the amounts of aldosterone and cortisol secreted from the cells were measured using an aldosterone EIA kit (Cayman-10004377) and cortisol EIA kit (Cayman-500360).
2. Statistical Processing
as §2

The subject of data set [5] is patients. The following applies: cited from earlier work.
The subject of data set [6] is human adrenal cortical tumor cells. Conditions: cited from earlier work.

Chain of CETP (P11597 18-493): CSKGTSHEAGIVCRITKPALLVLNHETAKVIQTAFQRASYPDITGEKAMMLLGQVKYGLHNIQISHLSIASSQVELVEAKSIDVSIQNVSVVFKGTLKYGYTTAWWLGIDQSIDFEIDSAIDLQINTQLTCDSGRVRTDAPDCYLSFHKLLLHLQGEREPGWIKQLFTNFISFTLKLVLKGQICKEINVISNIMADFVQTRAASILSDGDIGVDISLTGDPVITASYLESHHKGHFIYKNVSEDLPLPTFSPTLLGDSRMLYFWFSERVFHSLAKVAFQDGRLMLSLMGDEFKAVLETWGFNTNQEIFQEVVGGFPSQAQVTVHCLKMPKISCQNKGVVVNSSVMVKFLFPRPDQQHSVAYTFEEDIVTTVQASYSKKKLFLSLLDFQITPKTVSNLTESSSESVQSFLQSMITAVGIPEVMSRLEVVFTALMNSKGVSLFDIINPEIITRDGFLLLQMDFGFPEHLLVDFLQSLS

`COc1ncc(-c2ccc(C(=O)O)cc2F)cc1C1=C(CN2C(=O)O[C@H](c3cc(C(F)(F)F)cc(C(F)(F)F)c3)[C@@H]2C)CC(C)(C)CC1` [Compound 586, 4-(3-(2-(((4S,5R)-5-(3,5-bis(trifluoromethyl)phenyl)-4-methyl-2-oxooxazolidin-3-yl)methyl)-4,4-dimethylcyclohex-1-enyl)-2-methoxypyridin-5-yl)-3-fluorobenzoic acid]: inhibition against CETP was half-maximal at 13 nM (IC50). Further, in the data set with golden Syrian hamsters, the inhibition in vivo at 3 mg/kg amounted to 34% and the change in vivo at 3 mg/kg stood at 37%.
Taken in the same sequence, the figures for `COc1ccc(-c2ccc(C(=O)O)cc2Cl)cc1C1=C(CN2C(=O)O[C@H](c3cc(C(F)(F)F)cc(C(F)(F)F)c3)[C@@H]2C)CC(C)(C)CC1` [Compound 643, 3′-(2-(((4S,5R)-5-(3,5-bis(trifluoromethyl)phenyl)-4-methyl-2-oxooxazolidin-3-yl)methyl)-4,4-dimethylcyclohex-1-enyl)-2-chloro-4′-methoxybiphenyl-4-carboxylic acid] were 7.3 nM, 17% and 68%.
Take `COc1cc(F)c(C(C)C)cc1-c1ccc(C(F)(F)F)cc1CN1C(=O)O[C@H](c2cc(C(F)(F)F)cc(C(F)(F)F)c2)[C@@H]1C` [Anacetrapib]: in the data set with patients [1], the HDL-c level increase is given as 138% and the LDL-c level decrease is 40%.
As to `COc1ccc(-c2ccc(C(=O)O)cc2C(F)(F)F)cc1C1=C(CN2C(=O)O[C@H](c3cc(C(F)(F)F)cc(C(F)(F)F)c3)[C@@H]2C)CC(C)(C)CC1` [Compound 618, 3′-(2-(((4S,5R)-5-(3,5-bis(trifluoromethyl)phenyl)-4-methyl-2-oxooxazolidin-3-yl)methyl)-4,4-dimethylcyclohex-1-enyl)-4′-methoxy-2-(trifluoromethyl)biphenyl-4-carboxylic acid], on CETP, the IC50 (as a rule, the concentration that gives 50% inhibition) is 1.6 nM. Besides, in the data set with golden Syrian hamsters, the inhibition in vivo at 3 mg/kg was 26% and the change in vivo at 3 mg/kg was determined as 65%.
The corresponding values for `COc1ncc(-c2ccc(C(=O)O)cc2C)cc1C1=C(CN2C(=O)O[C@H](c3cc(C(F)(F)F)cc(C(F)(F)F)c3)[C@@H]2C)CC(C)(C)CC1` [Compound 557, 4-(3-(2-(((4S,5R)-5-(3,5-bis(trifluoromethyl)phenyl)-4-methyl-2-oxooxazolidin-3-yl)methyl)-4,4-dimethylcyclohex-1-enyl)-2-methoxypyridin-5-yl)-3-methylbenzoic acid] are 5.4 nM, 39% and 77%.
Taken in the same sequence, the figures for `Cc1cc(C(=O)O)ccc1-c1cc(C2=C(CN3C(=O)O[C@H](c4cc(C(F)(F)F)cc(C(F)(F)F)c4)[C@@H]3C)CC(C)(C)CC2)ccc1F` [Compound 681, 5′-(2-(((4S,5R)-5-(3,5-bis(trifluoromethyl)phenyl)-4-methyl-2-oxooxazolidin-3-yl)methyl)-4,4-dimethylcyclohex-1-enyl)-2′-fluoro-2-methylbiphenyl-4-carboxylic acid] were 6.6 nM, 29% and 25%.
Taken in the same sequence, the figures for `COc1cc(F)c(-c2ccc(C(=O)O)cc2F)cc1C1=C(CN2C(=O)O[C@H](c3cc(C(F)(F)F)cc(C(F)(F)F)c3)[C@@H]2C)CC(C)(C)CC1` [Compound 661, 5′-(2-(((4S,5R)-5-(3,5-bis(trifluoromethyl)phenyl)-4-methyl-2-oxooxazolidin-3-yl)methyl)-4,4-dimethylcyclohex-1-enyl)-2,2′-difluoro-4′-methoxybiphenyl-4-carboxylic acid] were 2.5 nM, 20% and 53%.
`COc1cc(F)c(-c2ccc(C(=O)O)cc2C)cc1C1=C(CN2C(=O)O[C@H](c3cc(C(F)(F)F)cc(C(F)(F)F)c3)[C@@H]2C)CC(C)(C)CC1` [Compound 574, 5′-(2-(((4S,5R)-5-(3,5-bis(trifluoromethyl)phenyl)-4-methyl-2-oxooxazolidin-3-yl)methyl)-4,4-dimethylcyclohex-1-enyl)-2′-fluoro-4′-methoxy-2-methylbiphenyl-4-carboxylic acid] gave an IC50 on CETP of 3.9 nM. For the same compound, in the data set on golden Syrian hamsters, the inhibition in vivo at 3 mg/kg stood at 36% and the change in vivo at 3 mg/kg turned out to be 41%.
On to `Cc1cc(C)c2c(c1)[C@@H](N(Cc1cc(C(F)(F)F)cc(C(F)(F)F)c1)c1nnn(C)n1)CCCN2C[C@H]1CC[C@H](C(=O)O)CC1` [Evacetrapib], for which, in the data set with patients [2], the HDL-c levels entry is given as “increases HDL-c levels in a dose-dependent manner” and the “side effects such as blood pressure elevation” value is on record as “does not cause side effects such blood pressure elevation”.
`C[C@H]1[C@@H](c2cc(C(F)(F)F)cc(C(F)(F)F)c2)OC(=O)N1CC1=C(c2cc(-c3ccc(C(=O)O)cc3C(F)(F)F)ccc2F)CCC(C)(C)C1` [Compound 695, 3′-(2-(((4S,5R)-5-(3,5-bis(trifluoromethyl)phenyl)-4-methyl-2-oxooxazolidin-3-yl)methyl)-4,4-dimethylcyclohex-1-enyl)-4′-fluoro-2-(trifluoromethyl)biphenyl-4-carboxylic acid] yielded an IC50 on CETP of 6.4 nM. Also, in the data set on golden Syrian hamsters, the inhibition in vivo at 3 mg/kg was found to be 35% and the change in vivo at 3 mg/kg was 71%.
In the case of `CCC(CC)CC1(C(=O)Nc2ccccc2SC(=O)C(C)C)CCCCC1` [Dalcetrapib], in the data set on patients [3], the “effects (efficacy)” value was “insufficient effects” and the side effects entry was “does not have the side effects of Torcetrapib”.
Consider `COc1ccc(-c2c(F)cc(C(=O)O)cc2F)cc1C1=C(CN2C(=O)O[C@H](c3cc(C(F)(F)F)cc(C(F)(F)F)c3)[C@@H]2C)CC(C)(C)CC1` [Compound 593, 3′-(2-(((4S,5R)-5-(3,5-bis(trifluoromethyl)phenyl)-4-methyl-2-oxooxazolidin-3-yl)methyl)-4,4-dimethylcyclohex-1-enyl)-2,6-difluoro-4′-methoxybiphenyl-4-carboxylic acid], for which the IC50 against CETP was found to be 1.5 nM. Moreover, in the data set with golden Syrian hamsters, the inhibition in vivo at 3 mg/kg came out at 29% and the change in vivo at 3 mg/kg was 61%.
`CCOC(=O)N1c2ccc(C(F)(F)F)cc2[C@@H](N(Cc2cc(C(F)(F)F)cc(C(F)(F)F)c2)C(=O)OC)C[C@H]1CC` [torcetrapib]: in data set [4], the secretion of aldosterone result was “increased the secretion of the two hormones” and the secretion of cortisol entry is reported as “increased the secretion of the two hormones”. In addition, the “morbidity rate and mortality rate” value in the data set on patients [5] (combination of torcetrapib and atorvastatin compared to atorvastatin alone) was “increase”. Further, in the data set with patients [5] (human, in vivo), the blood pressure entry is listed as “causes an increase in blood pressure” and the mortality rate result is “an increase in mortality rate”. Further, in data set [6], the secretion of aldosterone entry was “increased the secretion of aldosterone and cortisol”; the secretion of cortisol result was “increased the secretion of aldosterone and cortisol”.
